Source: patent US11331327B2, “Antibacterial use of halogenated salicylanilides” (UNION therapeutics A/S, priority 2014, dated 2022)
Values after ≈ are worked out from the molar mass of the structure shown. Where two headings read alike, the source gives them in different places.

System: S. aureus clinical isolates and S. aureus ATCC 29213
Experiment: MIC assay according to CLSI criteria, Example 2, S. aureus strains
Format: cell-based, Staphylococcus aureus
Details: Staphylococcus aureus, read-out: MIC
Description: Strains were conserved in Luria Bertani (LB) Broth (S. aureus) or Brain Heart Infusion (BHI) (S. pyogenes) supplemented with glycerol 15% (v/v) at −80° C., and reactivated by isolation on LB (S. aureus) or BHI (S. pyogenes) agar plates. Strains were cultivated in Mueller Hinton (MH) Broth-cation adjusted (S. aureus) or BHI (S. pyogenes). All strains were cultivated aerobically (microaerobically for S. pyogenes strains) at 37° C.
Bacterial cultures were stopped in their exponential growth phase and plates were inoculated with the approximate concentration of 5×10^5 cells per well. Plates were incubated at 37° C. for 18 hours (S. aureus) or 24 hours (S. pyogenes).

In the case of `C/C(=C\C(=O)OCCCCCCCCC(=O)O)C[C@@H]1OC[C@H](C[C@@H]2O[C@H]2[C@@H](C)[C@H](C)O)[C@@H](O)[C@H]1O` [Mupirocin], the MIC (ATCC 29213 / MRSA, strain MRSA 15) is reported as 0.25 µg/mL (≈ 0.499 µM), the MIC (ATCC 29213 / MRSA, strain MRSA 16) is reported as over 16 µg/mL and the MIC (ATCC 29213 / MRSA, strain MRSA 17) is reported as over 16 µg/mL. It also gave an MIC (ATCC 29213 / MRSA, strain MRSA 18) of 0.125 µg/mL (≈ 0.25 µM), an MIC (ATCC 29213 / MRSA, strain MRSA 19) of 0.25 µg/mL (≈ 0.499 µM) and an MIC (ATCC 29213 / MRSA, strain MRSA 20) of 0.25 µg/mL (≈ 0.499 µM). It also gave an MIC (ATCC 29213 / MRSA, strain MRSA 21) of 0.125 µg/mL (≈ 0.25 µM), an MIC (ATCC 29213 / MRSA, strain MRSA 22) of 0.25 µg/mL (≈ 0.499 µM) and an MIC (ATCC 29213 / MRSA, strain MRSA 23) of 0.25 µg/mL (≈ 0.499 µM). It also gave an MIC (ATCC 29213 / MRSA, strain MRSA 24) of 0.25 µg/mL (≈ 0.499 µM), an MIC (ATCC 29213 / MRSA, strain MRSA 25) of 0.25 µg/mL (≈ 0.499 µM) and an MIC (ATCC 29213 / MRSA, strain MRSA 26) of 0.5 µg/mL (≈ 0.999 µM). For the same compound, the MIC (ATCC 29213 / MRSA, strain MRSA 27) was 0.25 µg/mL (≈ 0.499 µM), the MIC (ATCC 29213 / MRSA, strain MRSA 27b) was 0.25 µg/mL (≈ 0.499 µM) and the MIC (ATCC 29213 / MRSA, strain MRSA 28) was 0.5 µg/mL (≈ 0.999 µM). It also gave an MIC (ATCC 29213 / MRSA, strain MRSA 29) of 0.25 µg/mL (≈ 0.499 µM), an MIC (ATCC 29213 / MRSA, strain MRSA 30) of 0.125 µg/mL (≈ 0.25 µM) and an MIC (ATCC 29213 / MRSA, strain MRSA 31) of 0.25 µg/mL (≈ 0.499 µM). It also gave an MIC (ATCC 29213 / MRSA, strain MRSA 32) of 0.25 µg/mL (≈ 0.499 µM), an MIC (ATCC 29213 / MRSA, strain MRSA 33) of 0.25 µg/mL (≈ 0.499 µM) and an MIC (ATCC 29213 / MRSA, strain MRSA 34) of 0.25 µg/mL (≈ 0.499 µM). The MIC (ATCC 29213 / MRSA, strain MRSA 35) was 0.5 µg/mL (≈ 0.999 µM), the MIC (ATCC 29213 / MRSA, strain MRSA 36) was 0.25 µg/mL (≈ 0.499 µM) and the MIC (ATCC 29213 / MRSA, strain MRSA 37) was 0.25 µg/mL (≈ 0.499 µM). For the same compound, the MIC (ATCC 29213 / MRSA, strain MRSA 38) was 0.125 µg/mL (≈ 0.25 µM), the MIC (ATCC 29213 / MRSA, strain MRSA 39) was 0.25 µg/mL (≈ 0.499 µM) and the MIC (ATCC 29213 / MRSA, strain MRSA 40) was 0.25 µg/mL (≈ 0.499 µM). It also gave an MIC (ATCC 29213 / MRSA, strain MRSA 41) of 0.125 µg/mL (≈ 0.25 µM), an MIC (ATCC 29213 / MRSA, strain MRSA 42) of 0.25 µg/mL (≈ 0.499 µM) and an MIC (ATCC 29213 / MRSA, strain MRSA 43) of 0.25 µg/mL (≈ 0.499 µM). It also gave an MIC (ATCC 29213 / MRSA, strain MRSA 44) of 0.25 µg/mL (≈ 0.499 µM), an MIC (ATCC 29213 / MRSA, strain MRSA 45) of 0.13 µg/mL (≈ 0.26 µM) and an MIC (ATCC 29213 / MRSA, strain MRSA 46) of 0.13 µg/mL (≈ 0.26 µM). The MIC (ATCC 29213 / MRSA, strain MRSA 47) was 0.25 µg/mL (≈ 0.499 µM), the MIC (ATCC 29213 / MRSA, strain MRSA 48) was 0.13 µg/mL (≈ 0.26 µM) and the MIC (ATCC 29213 / MRSA, strain MRSA 49) was 0.25 µg/mL (≈ 0.499 µM). For the same compound, the MIC (ATCC 29213 / MRSA, strain MRSA 50) was 0.25 µg/mL (≈ 0.499 µM), the MIC (ATCC 29213 / MRSA, strain MRSA 51) was 0.25 µg/mL (≈ 0.499 µM) and the MIC (ATCC 29213 / MRSA, strain MRSA 52) was 0.25 µg/mL (≈ 0.499 µM). The MIC (ATCC 29213 / MRSA, strain MRSA 53) was 0.25 µg/mL (≈ 0.499 µM), the MIC (ATCC 29213 / MRSA, strain MRSA 54) was 0.25 µg/mL (≈ 0.499 µM) and the MIC (ATCC 29213 / MRSA, strain MRSA 55) was 0.25 µg/mL (≈ 0.499 µM). The MIC (ATCC 29213 / MRSA, strain MRSA 56) was 0.25 µg/mL (≈ 0.499 µM), the MIC (ATCC 29213 / MRSA, strain MRSA 57) was 0.125 µg/mL (≈ 0.25 µM) and the MIC (ATCC 29213 / MRSA, strain MRSA 58) was 0.125 µg/mL (≈ 0.25 µM). It also gave an MIC (ATCC 29213 / MRSA, strain MRSA 59) of 0.125 µg/mL (≈ 0.25 µM), an MIC (ATCC 29213 / MRSA, strain MRSA 60) of 0.25 µg/mL (≈ 0.499 µM) and an MIC (ATCC 29213 / MRSA, strain MRSA 61) of 0.25 µg/mL (≈ 0.499 µM). It also gave an MIC (ATCC 29213 / MRSA, strain MRSA 62) of 0.25 µg/mL (≈ 0.499 µM), an MIC (ATCC 29213 / MRSA, strain MRSA 63) of 0.125 µg/mL (≈ 0.25 µM) and an MIC (ATCC 29213 / MRSA, strain MRSA 64) of 0.25 µg/mL (≈ 0.499 µM). For the same compound, the MIC (ATCC 29213 / MRSA, strain MRSA 65) was 0.25 µg/mL (≈ 0.499 µM), the MIC (ATCC 29213 / MRSA, strain MRSA 66) was 0.25 µg/mL (≈ 0.499 µM) and the MIC (ATCC 29213 / MRSA, strain MRSA 67) was 0.125 µg/mL (≈ 0.25 µM). For the same compound, the MIC (ATCC 29213 / MRSA, strain MRSA 68) was 0.25 µg/mL (≈ 0.499 µM), the MIC (ATCC 29213 / MRSA, strain MRSA 69) was 0.125 µg/mL (≈ 0.25 µM) and the MIC (ATCC 29213 / MRSA, strain MRSA 70) was 0.25 µg/mL (≈ 0.499 µM). The MIC (ATCC 29213 / MRSA, strain MRSA 71) was 0.125 µg/mL (≈ 0.25 µM), the MIC (ATCC 29213 / MRSA, strain MRSA 72) was 0.25 µg/mL (≈ 0.499 µM) and the MIC (ATCC 29213 / MRSA, strain MRSA 73) was 0.25 µg/mL (≈ 0.499 µM). The MIC (ATCC 29213 / MRSA, strain MRSA 74) was 0.25 µg/mL (≈ 0.499 µM), the MIC (ATCC 29213 / MRSA, strain MRSA 75) was 0.5 µg/mL (≈ 0.999 µM) and the MIC (ATCC 29213 / MRSA, strain MRSA 76) was 0.25 µg/mL (≈ 0.499 µM). The MIC (ATCC 29213 / MRSA, strain MRSA 77) was 0.25 µg/mL (≈ 0.499 µM), the MIC (ATCC 29213 / MRSA, strain MRSA 78) was 0.25 µg/mL (≈ 0.499 µM) and the MIC (ATCC 29213 / MRSA, strain MRSA 79) was 0.25 µg/mL (≈ 0.499 µM). The MIC (ATCC 29213 / MRSA, strain MRSA 80) was 0.25 µg/mL (≈ 0.499 µM), the MIC (ATCC 29213 / MRSA, strain MRSA 81) was 0.25 µg/mL (≈ 0.499 µM) and the MIC (ATCC 29213 / MRSA, strain MRSA 82) was 0.25 µg/mL (≈ 0.499 µM). For the same compound, the MIC (ATCC 29213 / MRSA, strain MRSA 83) was 0.25 µg/mL (≈ 0.499 µM), the MIC (ATCC 29213 / MRSA, strain MRSA 84) was 0.25 µg/mL (≈ 0.499 µM) and the MIC (ATCC 29213 / MRSA, strain MRSA 85) was 0.25 µg/mL (≈ 0.499 µM). For the same compound, the MIC (ATCC 29213 / MRSA, strain MRSA 86) was 0.25 µg/mL (≈ 0.499 µM), the MIC (ATCC 29213 / MRSA, strain MRSA 87) was 0.25 µg/mL (≈ 0.499 µM) and the MIC (ATCC 29213 / MRSA, strain MRSA 88) was 0.25 µg/mL (≈ 0.499 µM). For the same compound, the MIC (ATCC 29213 / MRSA, strain MRSA 89) was 0.25 µg/mL (≈ 0.499 µM), the MIC (ATCC 29213 / MRSA, strain MRSA 90) was 0.25 µg/mL (≈ 0.499 µM) and the MIC (ATCC 29213 / MRSA, strain MRSA 91) was 0.25 µg/mL (≈ 0.499 µM). It also gave an MIC (ATCC 29213 / MRSA, strain MRSA 92) of 0.25 µg/mL (≈ 0.499 µM), an MIC (ATCC 29213 / MRSA, strain MRSA 93) of 0.25 µg/mL (≈ 0.499 µM) and an MIC (ATCC 29213 / MRSA, strain MRSA 94) of 0.25 µg/mL (≈ 0.499 µM). For the same compound, the MIC (ATCC 29213 / MRSA, strain MRSA 95) was 0.25 µg/mL (≈ 0.499 µM), the MIC (ATCC 29213 / MRSA, strain MRSA 96) was 0.125 µg/mL (≈ 0.25 µM) and the MIC (ATCC 29213 / MRSA, strain MRSA 97) was 0.25 µg/mL (≈ 0.499 µM). It also gave an MIC (ATCC 29213 / MRSA, strain MRSA 98) of 0.5 µg/mL (≈ 0.999 µM), an MIC (ATCC 29213 / MRSA, strain MRSA 99) of 0.5 µg/mL (≈ 0.999 µM) and an MIC (ATCC 29213 / MRSA, strain MRSA 100) of 0.5 µg/mL (≈ 0.999 µM). The MIC (ATCC 29213 / MRSA, strain MRSA 101) was 0.25 µg/mL (≈ 0.499 µM), the MIC (ATCC 29213 / MRSA, strain MRSA 102) was 0.25 µg/mL (≈ 0.499 µM) and the MIC (ATCC 29213 / MRSA, strain MRSA 103) was 0.25 µg/mL (≈ 0.499 µM). It also gave an MIC (ATCC 29213 / MRSA, strain MRSA 104) of 0.25 µg/mL (≈ 0.499 µM), an MIC (ATCC 29213 / MRSA, strain MRSA 105) of 0.25 µg/mL (≈ 0.499 µM) and an MIC (ATCC 29213 / MRSA, strain MRSA 106) of 0.25 µg/mL (≈ 0.499 µM). The MIC (ATCC 29213 / MRSA, strain MRSA 107) was 0.25 µg/mL (≈ 0.499 µM), the MIC (ATCC 29213 / MRSA, strain MRSA 108) was 0.25 µg/mL (≈ 0.499 µM) and the MIC (ATCC 29213 / MRSA, strain MRSA 109) was 0.25 µg/mL (≈ 0.499 µM). The MIC (ATCC 29213 / MRSA, strain MRSA 110) was 0.125 µg/mL (≈ 0.25 µM), the MIC (ATCC 29213 / MRSA, strain MRSA 111) was 0.25 µg/mL (≈ 0.499 µM) and the MIC (ATCC 29213 / MRSA, strain MRSA 112) was 0.25 µg/mL (≈ 0.499 µM). The MIC (ATCC 29213 / MRSA, strain MRSA 113) was 0.25 µg/mL (≈ 0.499 µM), the MIC (ATCC 29213 / MSSA, strain MSSA 01) was 0.125 µg/mL (≈ 0.25 µM) and the MIC (ATCC 29213 / MSSA, strain MSSA 02) was 0.125 µg/mL (≈ 0.25 µM). It also gave an MIC (ATCC 29213 / NEWMAN, strain Newman) of 0.25 µg/mL (≈ 0.499 µM).
